{"source": "patent US20200087625A1", "about": "“METHODS FOR ISOLATING, EXPANDING AND ADMINISTERING CANCER SPECIFIC CD8+ T CELLS” (priority 2017, published 2020)", "key": {"[1]": {"conditions": "cited from earlier work"}, "[2]": {"assay": "Serum cytokine analysis (Luminex) after systemic administration", "assay_type": "in vivo, BALB/c mice", "conditions": "i.p. 185 nmol/injection; sera 2, 4, 6, 24 hours; 1V270 vs 1V136", "protocol": "FIG. 36. […] BALB/c mice (n=5) were i.p. administered IV270 (200 μg=185 nmol/injection) or […] (58 μg=185 nmol/injection) and sera were collected 2, 4, 6, and 24 hours following the administration. The levels of TNFα, IL-12, and IP-IO were measured by Luminex assay. *P<0.05, **P<0.01 by two way ANOVA using a Bonferroni post hoc test comparing treatment groups.\nThe sera were collected from mice receiving […] of 1V136, 1V270 or vehicle 2, 4, 6, and 24 hours after i.p. administration (15). Cytokine levels in sera were determined by Luminex bead assays (MILLIPLEX™ MAP kit, Millip ore, Billerica, Mass.)."}, "4T1 cells [3]": {"test_system": "4T1 cells", "assay": "IV (experimental) lung metastasis model of 4T1 breast cancer", "assay_type": "in vivo, BALB/c mice"}, "4T1 cells [4]": {"test_system": "4T1 cells", "assay": "Ex vivo tumor-specific cytotoxicity study", "assay_type": "cell-based, BALB/c mice", "conditions": "effector to target cell ratio 16:1; vs vehicle", "protocol": "FIGS. 23A-23G. Systemic administration of […] induces tumor-specific CD8^+ T cells. (A) Protocol of IV metastasis model. (B) BALB/c mice (n=B-15/group) were i.v. injected with 4T1 cells (2×10^4) on day 0.1V270 (2, 20, or 200 μg/injection) was i.p. administered on days −1, 7, 10, and 14. The numbers of lung nodules were counted on day 21. (C) 200 μg/injection 1V270 was i.p. administered on days −1 or 0 followed by days 7, 10, and 14 where indicated. The numbers of lung nodules were counted on day 21. […] Intracellular granzyme B (D) and IFNγ (E) were analyzed by flow cytometry. […] The percent specific killing was calculated. Data were analyzed by two-way ANOVA using a Bonferroni post hoc test comparing treatment groups against vehicle group. *P<0.05. […]\nTumor-specific cytotoxicity was examined using 4T1 cells as target cells and BALB/3T3 cells as irrelevant cells. […] The frequencies of 4T1 (CFSE high) and BALB/3T3 (CFSE low) cells were determined by flow cytometry, and the percent specific killing was calculated. […]\nTo examine the role of CD8^+ T cells after systemic 1V270 treatment, mediastinal lymph node (mLN) cells, splenocytes, and lung tissues were analyzed in the IV metastasis model on day 21 (FIGS. 23D-2G). Activation of CD8^+ T cells was assessed by intracellular staining for granzyme B and interferon γ (IFNγ). […]"}}, "data": [{"smiles": "CCCCCCCCC=CCCCCCCCC(=O)OCC(COP(=O)(O)OCCNC(=O)c1ccc(Cn2c(=O)[nH]c3c(N)nc(OCCOC)nc32)cc1)OC(=O)CCCCCCCC=CCCCCCCCC", "note": "(stereo not shown) [1V270]", "values": [{"measurement": "systemic cytokine release after intranasal administration", "setting": "[1]", "value": "without inducing systemic cytokine release"}, {"measurement": "serum cytokine induction (TNFα, IL-12, IP-10)", "setting": "[2]", "value": "significantly lower levels of cytokine induction"}, {"measurement": "lung metastasis after a single administration", "setting": "4T1 cells [3]; 200 μg i.p., 1 day prior to tumor inoculation", "value": "sufficient to inhibit lung metastasis"}, {"measurement": "lung metastasis (number of lung nodules)", "setting": "4T1 cells [3]; 1V270 2, 20 or 200 μg/injection i.p. days -1, 7, 10, 14, counted day 21", "value": "inhibited lung metastasis in a dose-dependent manner"}, {"measurement": "lowest effective dose", "setting": "4T1 cells [3]; i.p., inhibition of lung metastasis", "value": 20, "unit": "µg"}, {"measurement": "number of lung nodules", "setting": "4T1 cells [3]; intranasal 20 or 200 μg/50 μL on days -3, -1, 3, 7, 10", "value": "inhibited the number of lung nodules in a dose-dependent manner"}, {"measurement": "tumor-specific cytotoxicity of CD8+ T cells", "setting": "4T1 cells [4]", "value": "significantly higher tumor-specific cytotoxicity"}]}]}
